Reference: publication PMC10302633 (Marine Drugs, 2023)

Columns and labels:
human α7 nAChRs = human α7 nAChRs (Homo sapiens, UniProt P36544); assay: cell-based
rat α7 nAChRs = rat α7 nAChRs (Rattus norvegicus, UniProt Q05941); assay: cell-based; assay type: cell-based
rat α9α10 nAChRs = rat α9α10 nAChRs (Rattus norvegicus, UniProt P43144+Q9JLB5); assay type: cell-based
human α9α10 nAChRs = human α9α10 nAChRs (Homo sapiens, UniProt Q9GZZ6+Q9UGM1); assay type: cell-based
Chain of human α9α10 nAChRs (Q9UGM1 26-479 limits assumed): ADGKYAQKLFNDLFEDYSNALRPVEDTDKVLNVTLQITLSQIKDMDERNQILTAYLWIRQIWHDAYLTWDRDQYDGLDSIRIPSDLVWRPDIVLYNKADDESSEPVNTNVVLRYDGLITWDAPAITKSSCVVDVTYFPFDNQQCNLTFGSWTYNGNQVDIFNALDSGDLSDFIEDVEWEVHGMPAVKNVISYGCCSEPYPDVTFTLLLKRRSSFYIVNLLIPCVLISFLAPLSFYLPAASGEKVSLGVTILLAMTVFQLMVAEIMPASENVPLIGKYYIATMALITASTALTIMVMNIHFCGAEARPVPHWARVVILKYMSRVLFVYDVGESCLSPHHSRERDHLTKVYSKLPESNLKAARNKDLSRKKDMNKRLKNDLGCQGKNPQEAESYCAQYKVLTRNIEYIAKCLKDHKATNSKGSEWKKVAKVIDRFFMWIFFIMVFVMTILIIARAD
Chain of human α9α10 nAChRs (Q9GZZ6 25-450 limits assumed): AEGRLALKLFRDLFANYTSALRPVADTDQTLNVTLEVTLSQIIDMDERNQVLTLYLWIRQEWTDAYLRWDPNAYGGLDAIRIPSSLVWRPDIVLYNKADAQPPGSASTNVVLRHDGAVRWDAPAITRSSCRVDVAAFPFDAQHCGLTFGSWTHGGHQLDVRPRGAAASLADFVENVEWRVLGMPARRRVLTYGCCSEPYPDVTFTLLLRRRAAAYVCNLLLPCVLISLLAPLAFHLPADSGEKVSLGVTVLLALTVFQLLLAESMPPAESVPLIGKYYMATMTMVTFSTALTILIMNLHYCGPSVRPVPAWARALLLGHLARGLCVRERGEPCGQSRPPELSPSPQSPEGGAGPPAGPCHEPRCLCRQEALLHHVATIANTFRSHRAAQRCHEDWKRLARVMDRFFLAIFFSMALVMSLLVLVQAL

Chain of rat α7 nAChRs (Q05941 23-502 limits assumed): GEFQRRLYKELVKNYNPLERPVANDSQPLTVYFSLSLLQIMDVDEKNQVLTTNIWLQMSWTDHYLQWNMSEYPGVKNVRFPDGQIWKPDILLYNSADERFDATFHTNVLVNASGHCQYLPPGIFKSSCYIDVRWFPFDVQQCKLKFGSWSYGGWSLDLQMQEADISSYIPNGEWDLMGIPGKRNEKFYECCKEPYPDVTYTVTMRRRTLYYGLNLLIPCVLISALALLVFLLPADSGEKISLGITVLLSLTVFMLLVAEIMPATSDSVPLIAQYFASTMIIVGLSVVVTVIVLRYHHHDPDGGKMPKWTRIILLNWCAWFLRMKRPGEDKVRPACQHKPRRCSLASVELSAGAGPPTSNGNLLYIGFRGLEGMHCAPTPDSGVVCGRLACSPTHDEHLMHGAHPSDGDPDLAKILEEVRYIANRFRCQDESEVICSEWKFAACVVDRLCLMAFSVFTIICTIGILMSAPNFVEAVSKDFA
Chain of human α7 nAChRs (P36544 23-502 limits assumed): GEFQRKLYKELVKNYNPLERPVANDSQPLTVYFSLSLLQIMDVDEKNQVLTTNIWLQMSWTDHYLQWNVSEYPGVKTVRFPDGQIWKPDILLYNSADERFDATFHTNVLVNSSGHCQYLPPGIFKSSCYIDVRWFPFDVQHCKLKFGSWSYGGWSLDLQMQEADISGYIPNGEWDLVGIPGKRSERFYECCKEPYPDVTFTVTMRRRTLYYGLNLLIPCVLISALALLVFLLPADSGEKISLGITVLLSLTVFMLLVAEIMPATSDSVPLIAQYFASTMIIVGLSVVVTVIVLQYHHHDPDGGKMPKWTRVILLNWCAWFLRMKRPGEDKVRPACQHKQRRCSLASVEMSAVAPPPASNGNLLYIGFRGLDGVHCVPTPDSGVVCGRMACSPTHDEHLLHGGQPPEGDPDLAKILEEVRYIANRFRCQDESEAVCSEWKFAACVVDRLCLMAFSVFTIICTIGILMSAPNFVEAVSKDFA
Chain of rat α9α10 nAChRs (P43144 26-479 limits assumed): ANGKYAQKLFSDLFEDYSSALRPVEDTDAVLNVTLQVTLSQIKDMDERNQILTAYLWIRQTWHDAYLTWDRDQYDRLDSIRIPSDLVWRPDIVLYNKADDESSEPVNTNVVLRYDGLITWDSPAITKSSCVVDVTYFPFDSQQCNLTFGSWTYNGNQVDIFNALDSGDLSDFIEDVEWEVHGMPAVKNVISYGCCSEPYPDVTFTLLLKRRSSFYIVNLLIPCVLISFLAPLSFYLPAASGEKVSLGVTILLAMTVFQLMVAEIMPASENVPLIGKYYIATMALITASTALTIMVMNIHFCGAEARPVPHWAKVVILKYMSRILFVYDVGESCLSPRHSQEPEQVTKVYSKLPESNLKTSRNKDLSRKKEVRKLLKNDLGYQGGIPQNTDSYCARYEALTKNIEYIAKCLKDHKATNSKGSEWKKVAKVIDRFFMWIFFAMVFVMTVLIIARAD
Chain of rat α9α10 nAChRs (Q9JLB5 25-447 limits assumed): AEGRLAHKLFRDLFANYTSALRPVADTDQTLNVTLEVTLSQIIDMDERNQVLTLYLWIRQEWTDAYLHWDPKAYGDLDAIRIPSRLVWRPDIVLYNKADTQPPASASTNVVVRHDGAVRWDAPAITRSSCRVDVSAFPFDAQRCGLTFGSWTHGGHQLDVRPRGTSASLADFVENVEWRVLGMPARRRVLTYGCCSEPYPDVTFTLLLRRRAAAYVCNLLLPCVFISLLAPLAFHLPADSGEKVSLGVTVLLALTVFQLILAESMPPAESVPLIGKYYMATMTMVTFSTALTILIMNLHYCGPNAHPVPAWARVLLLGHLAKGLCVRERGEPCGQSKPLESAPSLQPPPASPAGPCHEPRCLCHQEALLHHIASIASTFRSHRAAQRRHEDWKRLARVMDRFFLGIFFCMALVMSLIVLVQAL

## N=C(N)NCCC[C@H](NC(=O)[C@@H]1CSSC[C@@H]2NC(=O)[C@@H](NC(=O)CN)CSSC[C@H](NC(=O)[C@H](CCCNC(=N)N)NC(=O)[C@@H]3CCCN3C(=O)[C@H](CC(=O)O)NC(=O)[C@H](CO)NC2=O)C(=O)N[C@@H](CCCNC(=N)N)C(=O)N[C@@H](Cc2ccc(O)cc2)C(=O)N[C@@H](CCCNC(=N)N)C(=O)N1)C(=O)O [RgIA]
Human α7 nAChRs
  Hill Slope: 0.7 (0.4–1.0)
  IC50: 4.61 µM
Rat α7 nAChRs
  Hill Slope: 0.8 (0.4–1.1)
  IC50: 5.31 µM
  inhibition of ACh-evoked currents: 60%
Rat α9α10 nAChRs
  Hill Slope: 0.8 (0.7–0.9)
Human α9α10 nAChRs
  Hill Slope: 0.5 (0.4–0.6)
